# From patent US12459951B2, “Compounds that interact with RAS superfamily proteins for treatment of cancers, inflammatory diseases, rasopathies, and fibrotic disease” (SHY Therapeutics, LLC, priority 2022, dated 2025)
# Test system: Smad2/Smad3 phosphorylation
# Experiment: Phospho-Smad2/3 Inhibition Assay (western blot), Panc-1
# Assay type: cell-based, human
# Settings: at 10 μM, Panc-1 pancreatic cancer cell line; starred symbols = activation
# Summary of the method: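 Western blotting of lysates (15-50 μg protein) read phosphorylation of Smad2 Ser465/467 and Smad3 Ser423/425. Before lysis, Panc-1 cells got 1 h of 10 ng/ml TGF-b1 following 3 h compound exposure at 37° C (10 μM final, or serial dilutions for IC50, 0.3% DMSO) after overnight 0.5% FBS starvation.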
row,Structure (SMILES),% inh of Smad2/3 phosphorylation in Panc-1
1,"Cc1c(-c2ccn(C(C)C)n2)cn2nc(-c3nccn3C)nc(Nc3noc(C4CC4)n3)c12 [Compound 75, 5-Cyclopropyl-N-(6-(1-isopropyl-1H-pyrazol-3-yl)-5-methyl-2-(1-methyl-1H-imidazol-2-yl)pyrrolo[2,1-f][1,2,4]triazin-4-yl)-1,2,4-oxadiazol-3-amine]",A (A = 1-25% inhibition)
2,"CCc1nc(Nc2nc(-c3nccn3C)nn3cc(-c4ccn(C(C)C)n4)c(C)c23)nn1C [Compound 76, N-(5-Ethyl-1-methyl-1H-1,2,4-triazol-3-yl)-6-(1-isopropyl-1H-pyrazol-3-yl)-5-methyl-2-(1-methyl-1H-imidazol-2-yl)pyrrolo[2,1-f][1,2,4]triazin-4-amine]",B (B = 26-45% inhibition)
3,"Cc1c(-c2ccn(C(C)C)n2)cn2nc(-c3nccn3C)nc(Nc3cnn(C(C)C)n3)c12 [Compound 77, 6-(1-Isopropyl-1H-pyrazol-3-yl)-N-(2-isopropyl-2H-1,2,3-triazol-4-yl)-5-methyl-2-(1-methyl-1H-imidazol-2-yl)pyrrolo[2,1-f][1,2,4]triazin-4-amine]",C (C = 46-75% inhibition)
4,"Cc1c(-c2ccn(C(C)C)n2)cn2nc(-c3nccn3C)nc(Nc3cn(C(C)C)nn3)c12 [Compound 78, N-(1-Isopropyl-1H-1,2,3-triazol-4-yl)-6-(1-isopropyl-1H-pyrazol-3-yl)-5-methyl-2-(1-methyl-1H-imidazol-2-yl)pyrrolo[2,1-f][1,2,4]triazin-4-amine]",A (A = 1-25% inhibition)
5,"COCc1csc(Nc2nc(-c3nccn3C)nn3cc(-c4ccn(C(C)C)n4)c(C)c23)n1 [Compound 79, N-(6-(1-Isopropyl-1H-pyrazol-3-yl)-5-methyl-2-(1-methyl-1H-imidazol-2-yl)pyrrolo[2,1-f][1,2,4]triazin-4-yl)-4-(methoxymethyl)thiazol-2-amine]",B* (B* = 26-45% activation)
6,"COc1ncc(Nc2nc(-c3nccn3C)nn3cc(-c4ccn(C(C)C)n4)c(C)c23)cn1 [Compound 80, 6-(1-Isopropyl-1H-pyrazol-3-yl)-N-(2-methoxypyrimidin-5-yl)-5-methyl-2-(1-methyl-1H-imidazol-2-yl)pyrrolo[2,1-f][1,2,4]triazin-4-amine]",B* (B* = 26-45% activation)
7,"Cc1c(-c2ccn(C(C)C)n2)cn2nc(-c3nccn3C)nc(Nc3nnc(C4CC4)[nH]3)c12 [Compound 81, N-(5-Cyclopropyl-4H-1,2,4-triazol-3-yl)-6-(1-isopropyl-1H-pyrazol-3-yl)-5-methyl-2-(1-methyl-1H-imidazol-2-yl)pyrrolo[2,1-f][1,2,4]triazin-4-amine]",A* (A* = 1-25% activation)
8,"COc1cnc(Nc2nc(-c3nccn3C)nn3cc(-c4ccn(C(C)C)n4)c(C)c23)cn1 [Compound 83, 6-(1-Isopropyl-1H-pyrazol-3-yl)-N-(5-methoxypyrazin-2-yl)-5-methyl-2-(1-methyl-1H-imidazol-2-yl)pyrrolo[2,1-f][1,2,4]triazin-4-amine]",B* (B* = 26-45% activation)
9,"Cc1c(-c2ccn(C(C)C)n2)cn2nc(-c3nccn3C)nc(Nc3ccn(C4CC4)n3)c12 [Compound 84, N-(1-Cyclopropyl-1H-pyrazol-3-yl)-6-(1-isopropyl-1H-pyrazol-3-yl)-5-methyl-2-(1-methyl-1H-imidazol-2-yl)pyrrolo[2,1-f][1,2,4]triazin-4-amine]",C* (C* = 46-75% activation)
10,"COc1ncccc1Nc1nc(-c2nccn2C)nn2cc(-c3ccn(C(C)C)n3)c(C)c12 [Compound 85, 6-(1-Isopropyl-1H-pyrazol-3-yl)-N-(2-methoxypyridin-3-yl)-5-methyl-2-(1-methyl-1H-imidazol-2-yl)pyrrolo[2,1-f][1,2,4]triazin-4-amine]",D (D = 76-100% inhibition)
11,"COc1nccc(Nc2nc(-c3nccn3C)nn3cc(-c4ccn(C(C)C)n4)c(C)c23)n1 [Compound 86, 6-(1-Isopropyl-1H-pyrazol-3-yl)-N-(2-methoxypyrimidin-4-yl)-5-methyl-2-(1-methyl-1H-imidazol-2-yl)pyrrolo[2,1-f][1,2,4]triazin-4-amine]",B* (B* = 26-45% activation)
12,"COc1cc(Nc2nc(-c3nccn3C)nn3cc(-c4ccn(C(C)C)n4)c(C)c23)ccn1 [Compound 87, 6-(1-Isopropyl-1H-pyrazol-3-yl)-N-(2-methoxypyridin-4-yl)-5-methyl-2-(1-methyl-1H-imidazol-2-yl)pyrrolo[2,1-f][1,2,4]triazin-4-amine]",B* (B* = 26-45% activation)
13,"COc1ncncc1Nc1nc(-c2nccn2C)nn2cc(-c3ccn(C(C)C)n3)c(C)c12 [Compound 88, 6-(1-Isopropyl-1H-pyrazol-3-yl)-N-(4-methoxypyrimidin-5-yl)-5-methyl-2-(1-methyl-1H-imidazol-2-yl)pyrrolo[2,1-f][1,2,4]triazin-4-amine]",C* (C* = 46-75% activation)
14,"COc1cccnc1Nc1nc(-c2nccn2C)nn2cc(-c3ccn(C(C)C)n3)c(C)c12 [Compound 89, 6-(1-Isopropyl-1H-pyrazol-3-yl)-N-(3-methoxypyridin-2-yl)-5-methyl-2-(1-methyl-1H-imidazol-2-yl)pyrrolo[2,1-f][1,2,4]triazin-4-amine]",C* (C* = 46-75% activation)
15,"Cc1c(-c2ccn(C(C)C)n2)cn2nc(-c3nccn3C)nc(Nc3ncc(C4CC4)o3)c12 [Compound 90, 5-Cyclopropyl-N-(6-(1-isopropyl-1H-pyrazol-3-yl)-5-methyl-2-(1-methyl-1H-imidazol-2-yl)pyrrolo[2,1-f][1,2,4]triazin-4-yl)oxazol-2-amine]",C* (C* = 46-75% activation)
16,"Cc1c(-c2ccn(C(C)C)n2)cn2nc(-c3nccn3C)nc(Nc3cc4n(n3)CCO4)c12 [Compound 91, N-(6-(1-Isopropyl-1H-pyrazol-3-yl)-5-methyl-2-(1-methyl-1H-imidazol-2-yl)pyrrolo[2,1-f][1,2,4]triazin-4-yl)-2,3-dihydropyrazolo[5,1-b]oxazol-6-amine]",0 (0 = 0% inhibition)
17,"COCCO[C@H]1C[C@H](Nc2nc(-c3nccn3C)nn3cc(-c4ccn(C(C)C)n4)c(C)c23)C1 [Compound 92, 6-(1-Isopropyl-1H-pyrazol-3-yl)-N-((1r,3r)-3-(2-methoxyethoxy)cyclobutyl)-5-methyl-2-(1-methyl-1H-imidazol-2-yl)pyrrolo[2,1-f][1,2,4]triazin-4-amine]",A* (A* = 1-25% activation)

# Test system: JNK phosphorylation
# Experiment: JNK Activation Assay (western blot), Panc-1
# Assay type: cell-based, human
# Settings: at 10 μM, Panc-1 pancreatic cancer cell line; starred symbols = activation
# Summary of the method: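 KRas G12C Panc-1 cells treated 6 h at 37 °C with compound at 10 μM (0.3% DMSO), or serial dilutions for IC50. In Method 1 cells were serum-starved overnight (0.5% FBS) then stimulated with 1.5 ng/ml EGF for 15 min; Method 2 used 10% FBS without stimulation. Phospho-JNK (Thr183/Tyr185) measured by western blot.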
row,Structure (SMILES),% inh of JNK in Panc-1
1,"CO[C@H]1CC[C@@H](Nc2nc(-c3nccn3C)nn3cc(-c4ccn(C(C)C)n4)c(C)c23)C1 (racemic) [Compound 1, rac 6-(1-Isopropyl-1H-pyrazol-3-yl)-N-((1R,3S)-3-methoxycyclopentyl)-5-methyl-2-(1-methyl-1H-imidazol-2-yl)pyrrolo[2,1-f][1,2,4]triazin-4-amine]",F* (F* = 31-74% activation)
2,"COCC1CCN(c2nc(-c3nccn3C)nn3cc(-c4ccn(C(C)C)n4)c(C)c23)C1 (racemic) [Compound 2, rac 6-(1-Isopropyl-1H-pyrazol-3-yl)-4-(3-(methoxymethyl)pyrrolidin-1-yl)-5-methyl-2-(1-methyl-1H-imidazol-2-yl)pyrrolo[2,1-f][1,2,4]triazine]",F* (F* = 31-74% activation)
